Data taken from patent US8017128B2, “Cosmetic active ingredient composed of arginine ferrulate and a microalgae extract and its uses” (priority 2006, dated 2011).

How the values were obtained:
thioredoxin = details: donor; NAC (10 mM) alone
glycated proteins = experiment: Reduction in glycated proteins in treated cells; format: cell-based
[1] = system: thioredoxin reductase (TrxR); details: donor
Experimental: A volume corresponding to 50 μg of proteins of each cell extract is incubated with a mixture of HEPES, 80 mM pH 7.5, 0.9 mg/ml of NADPH, EDTA 6 mM, 2 mg/ml of insulin and 10 μM of Trx of E. coli, at 37° C. for 20 minutes in a final volume of 120 μL. The reaction is stopped by the addition of 500 μL of DTNB (dithio-bis-nitrobenzoic acid) (0.4 mg/ml) in guanidine hydrochloride 6 M/Tris-Cl 0.2 M (pH 8.0). A control sample containing everything except the Trx is incubated and treated in the same way as each sample.
The absorbance at 412 nm is measured and the value of the control subtracted from the value of the corresponding absorbance of the sample.
A standard curve is prepared using TrxR from purified calf thymus, with a defined specific activity.

SMILES: CC(=O)N[C@@H](CS)C(=O)O [NAC, N-Acetyl-cysteine]
- Thioredoxin Level (thioredoxin): 59.8 ± 8.1 ng of Trx/mg of total proteins
- Thioredoxin level, % change vs control (thioredoxin): −32%

SMILES: COc1cc(/C=C/C(=O)O)ccc1O [arginine ferulate]
- content required to inhibit 50% of the formation of glycated proteins in the cells (glycated proteins): 0.005%-0.02%

SMILES: C=CC=O [Acrolein]
- TrxR activity, % change vs control ([1]; Acrolein 25 μM alone): −37%
- TrxR Activity ([1]; Acrolein 25 μM in the culture medium, alone): 130.8 ± 11.4 ng of TrxR/mg of total proteins
